In US20240150365A1 (Hotspot Therapeutics, Inc., priority 2022, published 2024):
Read-outs that look alike come from different tables or passages of the source.

Key:
MALT1 = target: T1, MALT1 (Homo sapiens, UniProt Q9UDY8); experiment: MALT-1 Fluorogenic Peptide Cleavage Assay (MALT1 inhibition assay); type: biochemical; settings: Avi-tagged FL MALT-1, Ac-LRSR-AMC peptide substrate, 30 min pre-incubation, 90 min reaction
T1 construct: Avi-tagged FL MALT-1 (Pharmaron, stored at −70° C.); Avi tag
T1 sequence (Q9UDY8 1-824): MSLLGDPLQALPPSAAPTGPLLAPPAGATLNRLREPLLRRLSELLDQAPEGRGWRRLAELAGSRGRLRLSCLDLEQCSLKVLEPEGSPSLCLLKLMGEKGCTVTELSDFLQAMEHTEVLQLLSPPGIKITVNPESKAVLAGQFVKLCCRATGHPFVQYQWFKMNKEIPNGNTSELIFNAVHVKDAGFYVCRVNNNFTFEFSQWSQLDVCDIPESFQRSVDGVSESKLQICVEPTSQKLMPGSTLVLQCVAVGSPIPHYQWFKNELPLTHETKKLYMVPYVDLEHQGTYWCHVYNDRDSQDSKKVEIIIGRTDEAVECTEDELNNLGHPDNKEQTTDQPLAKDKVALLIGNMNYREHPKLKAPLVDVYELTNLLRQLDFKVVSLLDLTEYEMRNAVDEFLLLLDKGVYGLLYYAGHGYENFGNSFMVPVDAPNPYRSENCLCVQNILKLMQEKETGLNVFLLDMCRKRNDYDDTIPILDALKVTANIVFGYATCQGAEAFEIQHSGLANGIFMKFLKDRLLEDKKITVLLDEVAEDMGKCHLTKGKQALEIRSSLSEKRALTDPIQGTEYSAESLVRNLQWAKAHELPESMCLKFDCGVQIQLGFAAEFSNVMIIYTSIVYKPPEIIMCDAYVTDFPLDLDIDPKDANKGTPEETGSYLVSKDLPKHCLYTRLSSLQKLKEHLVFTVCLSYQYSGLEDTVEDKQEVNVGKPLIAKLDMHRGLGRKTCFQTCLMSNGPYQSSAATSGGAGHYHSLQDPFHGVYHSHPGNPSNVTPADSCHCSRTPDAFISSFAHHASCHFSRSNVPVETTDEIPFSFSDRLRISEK
Outline: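 Avi-tagged full-length MALT1 pre-incubated 30 min with compound (2% DMSO final), then cleavage of Ac-LRSR-AMC followed over 90 min at room temperature. AMC fluorescence read at 342/441 nm; % inhibition fitted to sigmoidal curves for IC50.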

NF-kB = NF-kB reporter assay in Jurkat cells stimulated with aCD3/aCD28/PMA; type: cell-based; settings: Homo sapiens, Jurkat, read-out: NF-kB Reporter Assay IC50
Outline: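 Jurkat cells (25,000/well, serum-free RPMI 1640) preincubated 1 hr at 37° C with serially diluted compound, then stimulated with aCD3/aCD28/PMA (final 5 μg/mL, 5 μg/mL, 0.03 μg/mL) for 4 hr. Reporter luminescence read with One-Glo; IC50 derived.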

[1] = Jurkat cells, 1 hr compound incubation, aCD3/aCD28/PMA stimulation 4 hr, One-Glo readout

| Structure (SMILES) | IC50 (MALT1) [nM] | IC50 (NF-kB; [1]) [nM] | IC50 (NF-kB) [nM] |
| --- | --- | --- | --- |
| Cn1ccc2cccc(NS(=O)(=O)c3ccc(-c4cc(C(F)(F)F)n[nH]4)nc3)c21 [Example I-143, N-(1-Methyl-1H-Indol-7-yl)-6-(5-(Trifluoromethyl)-1H-Pyrazol-3-yl)Pyridine-3-Sulfonamide] | < 400 | < 400 | – |
| Cn1ncc2cccc(NS(=O)(=O)c3ccc(-c4cnn(CCO)c4)nc3)c21 [Example I-146, 6-(1-(2-Hydroxyethyl)-1H-Pyrazol-4-yl)-N-(1-Methyl-1H-Indazol-7-yl)Pyridine-3-Sulfonamide] | > 2500 | > 2500 | – |
| CCC(=O)c1cnn(-c2ccc(S(=O)(=O)Nc3cccc4cnn(C)c34)cn2)c1 [Example I-152, N-(1-Methyl-1H-Indazol-7-yl)-6-(4-Propionyl-1H-Pyrazol-1-yl)Pyridine-3-Sulfonamide] | > 2500 | < 400 | – |
| Cn1ncc2cccc(NS(=O)(=O)c3ccc(-c4cc[nH]c(=O)c4)nc3)c21 [Example I-154, N-(1-Methyl-1H-Indazol-7-yl)-2′-Oxo-1′,2′-Dihydro-[2,4′-Bipyridine]-5-Sulfonamide] | > 2500 | > 2500 | – |
| Cc1[nH]ncc1-c1ccc(S(=O)(=O)Nc2cccc3cnn(C)c23)cn1 [Example I-155, N-(1-Methyl-1H-Indazol-7-yl)-6-(5-Methyl-1H-Pyrazol-4-yl)Pyridine-3-Sulfonamide] | > 2500 | < 400 | – |
| Cn1c(=O)c2cccc(NS(=O)(=O)c3ccc(-n4cc(C(F)(F)F)cn4)nc3)c2n1C [Example I-158, N-(1,2-Dimethyl-3-Oxo-2,3-Dihydro-1H-Indazol-7-yl)-6-(4-(Trifluoromethyl)-1H-Pyrazol-1-yl)Pyridine-3-Sulfonamide] | > 2500 | > 2500 | – |
| Cn1ncc2ccc(O)c(NS(=O)(=O)c3ccc(-n4cc(C(F)(F)F)cn4)nc3)c21 [Example I-159, N-(6-Hydroxy-1-Methyl-1H-Indazol-7-yl)-6-(4-(Trifluoromethyl)-1H-Pyrazol-1-yl)Pyridine-3-Sulfonamide] | < 400 | < 400 | – |
| COc1ccc2cnn(C)c2c1N(C)S(=O)(=O)c1ccc(-n2cc(C(F)(F)F)cn2)nc1 [Example I-162, N-(6-Methoxy-1-Methyl-1H-Indazol-7-yl)-N-Methyl-6-(4-(Trifluoromethyl)-1H-Pyrazol-1-yl)Pyridine-3-Sulfonamide] | < 400 | < 400 | – |
| COc1ccc2cnn(C)c2c1N(CCN(C)C)S(=O)(=O)c1ccc(-n2cc(C(F)(F)F)cn2)nc1 [Example I-163, N-(2-(Dimethylamino)Ethyl)-N-(6-Methoxy-1-Methyl-1H-Indazol-7-yl)-6-(4-(Trifluoromethyl)-1H-Pyrazol-1-yl)Pyridine-3-Sulfonamide] | < 400 | – | 1000 to 2500 |
| COc1ccc2cnn(C)c2c1N(CCCN(C)C)S(=O)(=O)c1ccc(-n2cc(C(F)(F)F)cn2)nc1 [Example I-164, N-(3-(Dimethylamino)Propyl)-N-(6-Methoxy-1-Methyl-1H-Indazol-7-yl)-6-(4-(Trifluoromethyl)-1H-Pyrazol-1-yl)Pyridine-3-Sulfonamide] | < 400 | 400 to 1000 | – |
| COc1ccc2cnn(C)c2c1N(C)S(=O)(=O)c1ccc(-c2cc(C(F)(F)F)n(C)n2)nc1 [Example I-165, N-(6-Methoxy-1-Methyl-1H-Indazol-7-yl)-N-Methyl-6-(1-Methyl-5-(Trifluoromethyl)-1H-Pyrazol-3-yl)Pyridine-3-Sulfonamide] | < 400 | < 400 | – |

More lines, main results first:

| IC50 (MALT1) [nM] | IC50 (NF-kB; [1]) [nM] | Structure (SMILES) | IC50 (NF-kB) [nM] |
| --- | --- | --- | --- |
| < 400 | < 400 | COc1ccc2cnn(C)c2c1NS(=O)(=O)c1ccc(-n2nc(C)c(Cl)c2C)nc1 [Example I-141, 6-(4-Chloro-3,5-Dimethyl-1H-Pyrazol-1-yl)-N-(6-Methoxy-1-Methyl-1H-Indazol-7-yl)Pyridine-3-Sulfonamide] | – |
| < 400 | < 400 | COc1ccc2cnn(C)c2c1NS(=O)(=O)c1ccc(-n2nc(C)cc2C)nc1 [Example I-142, 6-(3,5-Dimethyl-1H-Pyrazol-1-yl)-N-(6-Methoxy-1-Methyl-1H-Indazol-7-yl)Pyridine-3-Sulfonamide] | – |
| > 2500 | > 2500 | COc1ccc2cnn(C)c2c1NS(=O)(=O)c1ccc(-n2nnc(C)n2)nc1 [Example I-144, N-(6-Methoxy-1-Methyl-1H-Indazol-7-yl)-6-(5-Methyl-2H-Tetrazol-2-yl)Pyridine-3-Sulfonamide] | – |
| > 2500 | 400 to 1000 | COc1ccc2cnn(C)c2c1NS(=O)(=O)c1ccc(-n2nccc2C2CC2)nc1 [Example I-147, 6-(5-Cyclopropyl-1H-Pyrazol-1-yl)-N-(6-Methoxy-1-Methyl-1H-Indazol-7-yl)Pyridine-3-Sulfonamide] | – |
| < 400 | < 400 | COc1ccc2cnn(C)c2c1NS(=O)(=O)c1ccc(-n2ncc(C)c2C)nc1 [Example I-148, 6-(4,5-Dimethyl-1H-Pyrazol-1-yl)-N-(6-Methoxy-1-Methyl-1H-Indazol-7-yl)Pyridine-3-Sulfonamide] | – |
| < 400 | < 400 | COc1ccc2cnn(C)c2c1NS(=O)(=O)c1ccc(-c2cnc(C)s2)nc1 [Example I-149, N-(6-Methoxy-1-Methyl-1H-Indazol-7-yl)-6-(2-Methylthiazol-5-yl)Pyridine-3-Sulfonamide] | – |
| < 400 | < 400 | COc1ccc2cnn(C)c2c1NS(=O)(=O)c1ccc(-n2cc(F)cn2)nc1 [Example I-150, 6-(4-Fluoro-1H-Pyrazol-1-yl)-N-(6-Methoxy-1-Methyl-1H-Indazol-7-yl)Pyridine-3-Sulfonamide] | – |
| < 400 | < 400 | COc1ccc2cnn(C)c2c1NS(=O)(=O)c1ccc(-n2nccc2OC)nc1 [Example I-151, N-(6-Methoxy-1-Methyl-1H-Indazol-7-yl)-6-(5-Methoxy-1H-Pyrazol-1-yl)Pyridine-3-Sulfonamide] | – |
| < 400 | < 400 | COc1ccc2cnn(C)c2c1NS(=O)(=O)c1ccc(-n2ccc(C3CC3)n2)nc1 [Example I-153, 6-(3-Cyclopropyl-1H-Pyrazol-1-yl)-N-(6-Methoxy-1-Methyl-1H-Indazol-7-yl)Pyridine-3-Sulfonamide] | – |
| < 400 | < 400 | COc1ncc2cnn(C)c2c1NS(=O)(=O)c1ccc(-n2ccc(C(F)(F)F)n2)nc1 [Example I-156, N-(6-Methoxy-1-Methyl-1H-Pyrazolo[4,3-C]Pyridin-7-yl)-6-(3-(Trifluoromethyl)-1H-Pyrazol-1-yl)Pyridine-3-Sulfonamide] | – |
| < 400 | < 400 | COc1ccc2cnn(C)c2c1NS(=O)(=O)c1ccc(-n2cc([N+](=O)[O-])cn2)nc1 [Example I-157, N-(6-Methoxy-1-Methyl-1H-Indazol-7-yl)-6-(4-Nitro-1H-Pyrazol-1-yl)Pyridine-3-Sulfonamide] | – |
| 1000 to 2500 | < 400 | COc1ccc2cnn(C)c2c1NS(=O)(=O)c1ccc(-n2ccn(C)c2=O)nc1 [Example I-160, N-(6-Methoxy-1-Methyl-1H-Indazol-7-yl)-6-(3-Methyl-2-Oxo-2,3-Dihydro-1H-Imidazol-1-yl)Pyridine-3-Sulfonamide] | – |
| 1000 to 2500 | 400 to 1000 | COc1ccc2cnn(C)c2c1NS(=O)(=O)c1ccc(-c2noc(C)n2)nc1 [Example I-161, N-(6-Methoxy-1-Methyl-1H-Indazol-7-yl)-6-(5-Methyl-1,2,4-Oxadiazol-3-yl)Pyridine-3-Sulfonamide] | – |
| > 2500 | > 2500 | COc1ccc2cnn(C)c2c1NS(=O)(=O)c1ccc(-c2nc(C)n[nH]2)nc1 [Example I-166, N-(6-Methoxy-1-Methyl-1H-Indazol-7-yl)-6-(3-Methyl-1H-1,2,4-Triazol-5-yl)Pyridine-3-Sulfonamide] | – |
| 1000 to 2500 | > 2500 | COc1ccc2cnn(C)c2c1NS(=O)(=O)c1ccc(-c2nc(C(F)(F)F)n[nH]2)nc1 [Example I-167, N-(6-Methoxy-1-Methyl-1H-Indazol-7-yl)-6-(3-(Trifluoromethyl)-1H-1,2,4-Triazol-5-yl)Pyridine-3-Sulfonamide] | – |
| > 2500 | > 2500 | COc1ccc2cnn(C)c2c1NS(=O)(=O)c1ccc(-c2nnc(C)n2C)nc1 [Example I-168, 6-(4,5-dimethyl-4H-1,2,4-triazol-3-yl)-N-(6-methoxy-1-methyl-1H-indazol-7-yl)pyridine-3-sulfonamide] | – |
